Where two headings read alike, the source gives them in different places.
What was measured:
Experiment in all cases: biochemical
Assay type in all cases: biochemical
[1] = biological target: various β-lactamases (bacterial lysates) (Klebsiella pneumoniae, UniProt Q9F663, H272Y)
[2] = biological target: various β-lactamases (bacterial lysates) (Escherichia coli, UniProt A0A5R8T042); conditions: read-out: AZT IC50 KP1009 CTX-M-15
[3] = biological target: various β-lactamases (bacterial lysates) (Salmonella typhimurium, UniProt P0A1V8); conditions: AZT IC50 KPX1001 OXA-2
various β-lactamases (bacterial lysates) (Salmonella typhimurium, UniProt P0A1V8), sequence (P0A1V8 22-275): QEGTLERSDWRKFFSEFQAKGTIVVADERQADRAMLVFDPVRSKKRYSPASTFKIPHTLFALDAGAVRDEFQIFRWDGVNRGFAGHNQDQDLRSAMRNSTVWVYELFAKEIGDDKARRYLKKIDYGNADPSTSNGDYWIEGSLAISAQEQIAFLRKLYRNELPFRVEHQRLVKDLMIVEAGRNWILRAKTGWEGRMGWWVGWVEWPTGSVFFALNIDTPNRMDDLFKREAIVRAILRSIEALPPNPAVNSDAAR

[4] = biological target: various β-lactamases (bacterial lysates) (Klebsiella pneumoniae, UniProt Q9F663); conditions: aztreonam cleavage
various β-lactamases (bacterial lysates) (Klebsiella pneumoniae, UniProt Q9F663), sequence (Q9F663 whole entry, looked up): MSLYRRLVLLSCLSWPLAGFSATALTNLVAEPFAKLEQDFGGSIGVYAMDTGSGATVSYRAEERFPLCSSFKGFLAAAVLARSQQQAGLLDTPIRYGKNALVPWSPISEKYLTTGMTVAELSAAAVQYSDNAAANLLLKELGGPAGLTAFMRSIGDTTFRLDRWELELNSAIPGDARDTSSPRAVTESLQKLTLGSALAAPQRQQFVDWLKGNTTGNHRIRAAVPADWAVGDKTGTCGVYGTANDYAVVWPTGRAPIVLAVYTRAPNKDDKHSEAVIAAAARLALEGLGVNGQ

[5] = biological target: various β-lactamases (bacterial lysates) (Escherichia coli, UniProt A0A649V088); conditions: read-out: AZT IC50 KP1005 CTX-M-14
various β-lactamases (bacterial lysates) (Escherichia coli, UniProt A0A649V088), sequence (A0A649V088 29-291): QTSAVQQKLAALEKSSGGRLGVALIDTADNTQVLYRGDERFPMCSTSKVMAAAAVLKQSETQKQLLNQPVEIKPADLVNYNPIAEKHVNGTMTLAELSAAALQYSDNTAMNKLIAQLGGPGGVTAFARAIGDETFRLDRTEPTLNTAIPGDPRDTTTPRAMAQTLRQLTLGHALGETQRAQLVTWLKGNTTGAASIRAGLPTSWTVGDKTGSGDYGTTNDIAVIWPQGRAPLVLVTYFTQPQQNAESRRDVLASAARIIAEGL

[6] = biological target: various β-lactamases (bacterial lysates) (Pseudomonas aeruginosa, UniProt P14489); conditions: AZT IC50 KP1007 OXA-10
various β-lactamases (bacterial lysates) (Pseudomonas aeruginosa, UniProt P14489), sequence (P14489 20-266): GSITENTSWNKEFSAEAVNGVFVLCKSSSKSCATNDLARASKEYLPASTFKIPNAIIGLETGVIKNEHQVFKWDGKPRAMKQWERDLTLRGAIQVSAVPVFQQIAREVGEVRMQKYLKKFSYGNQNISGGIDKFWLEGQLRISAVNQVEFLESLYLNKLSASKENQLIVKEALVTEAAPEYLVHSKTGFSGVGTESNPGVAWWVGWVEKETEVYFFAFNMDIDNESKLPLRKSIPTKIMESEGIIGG

[7] = lysate KP1004 KPC-2, read-out: AZT IC50 KP1004 KPC-2 (converted)
[8] = lysate KP1008 KPC-2, read-out: AZT IC50 KP1008 KPC-2

various β-lactamases (bacterial lysates) (Escherichia coli, UniProt A0A5R8T042), sequence (A0A5R8T042 29-291): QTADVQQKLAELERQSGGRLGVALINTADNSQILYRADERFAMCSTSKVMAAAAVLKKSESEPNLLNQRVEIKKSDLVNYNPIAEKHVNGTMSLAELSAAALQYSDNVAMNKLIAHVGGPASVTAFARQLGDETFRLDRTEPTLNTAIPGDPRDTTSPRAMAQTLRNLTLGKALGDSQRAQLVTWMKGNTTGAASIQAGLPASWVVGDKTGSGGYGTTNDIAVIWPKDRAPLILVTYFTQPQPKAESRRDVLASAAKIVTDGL
various β-lactamases (bacterial lysates) (Klebsiella pneumoniae, UniProt Q9F663, H272Y), sequence (Q9F663 whole entry H272Y, looked up): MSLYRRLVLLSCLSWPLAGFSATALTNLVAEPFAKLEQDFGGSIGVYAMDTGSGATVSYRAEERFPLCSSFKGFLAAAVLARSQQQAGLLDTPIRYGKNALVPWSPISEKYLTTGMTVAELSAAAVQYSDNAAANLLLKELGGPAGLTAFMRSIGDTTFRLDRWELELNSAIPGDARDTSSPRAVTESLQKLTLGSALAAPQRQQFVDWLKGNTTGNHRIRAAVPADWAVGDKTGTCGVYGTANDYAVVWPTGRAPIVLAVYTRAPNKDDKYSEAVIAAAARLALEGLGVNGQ

SMILES | IC50 [1] | IC50 [2] | IC50 [3] | IC50 [4, 7] | IC50 [4, 8] | IC50 [5] | IC50 [6]
O=C(O)C[C@@H]1CC[C@H](NC(=O)[C@H]2Cc3ccccc3CN2)B(O)O1 [Compound 46, 2-((3R,6S)-2-hydroxy-3-((R)-1,2,3,4-tetrahydroisoquinoline-3-carboxamido)-1,2-oxaborinan-6-yl)acetic acid] | < 1.51 µM | > 6.02 µM | > 6.02 µM | < 1.51 µM | < 1.51 µM | > 6.02 µM | > 6.02 µM
N=C(N)NCCC[C@@H](N)C(=O)N[C@H]1CC[C@@H](CC(=O)O)OB1O [Compound 47, 2-((3R,6S)-3-((R)-2-amino-5-guanidinopentanamido)-2-hydroxy-1,2-oxaborinan-6-yl)acetic acid] | < 1.52 µM | > 6.08 µM | > 6.08 µM | 1.52 to 6.08 µM | 1.52 to 6.08 µM | > 6.08 µM | > 6.08 µM
O=C(O)C[C@@H]1CC[C@H](NC(=O)Cc2ccncc2)B(O)O1 [Compound 49, 2-((3R,6S)-2-hydroxy-3-(2-(pyridin-4-yl)acetamido)-1,2-oxaborinan-6-yl)acetic acid] | < 1.71 µM | > 6.85 µM | 1.71 to 6.85 µM | < 1.71 µM | < 1.71 µM | 1.71 to 6.85 µM | > 6.85 µM
N[C@H]1CC[C@@H](CC(=O)N[C@H]2CC[C@@H](CC(=O)O)OB2O)CC1 [Compound 50, 2-((3R,6S)-3-(2-(4-aminocyclohexyl)acetamido)-2-hydroxy-1,2-oxaborinan-6-yl)acetic acid] | < 1.6 µM | > 6.41 µM | > 6.41 µM | < 1.6 µM | < 1.6 µM | 1.6 to 6.41 µM | > 6.41 µM
O=C(O)C[C@@H]1CC[C@H](NC(=O)C[C@H]2CCCCN2)B(O)O1 [Compound 52, 2-((3R,6S)-2-hydroxy-3-(2-((R)-piperidin-2-yl)acetamido)-1,2-oxaborinan-6-yl)acetic acid] | 1.68 to 6.71 µM | > 6.71 µM | > 6.71 µM | < 1.68 µM | 1.68 to 6.71 µM | > 6.71 µM | > 6.71 µM
O=C(O)C[C@@H]1CC[C@H](NC(=O)C[C@@H]2CCCCN2)B(O)O1 [Compound 53, 2-((3R,6S)-2-hydroxy-3-(2-((S)-piperidin-2-yl)acetamido)-1,2-oxaborinan-6-yl)acetic acid] | 1.68 to 6.71 µM | > 6.71 µM | 1.68 to 6.71 µM | < 1.68 µM | 1.68 to 6.71 µM | > 6.71 µM | > 6.71 µM
Cc1nc2ccccc2n1CCC(=O)N[C@H]1CC[C@@H](CC(=O)O)OB1O [Compound 55, 2-((3R,6S)-2-hydroxy-3-(3-(2-methyl-1H-benzo[d]imidazol-1-yl)propanamido)-1,2-oxaborinan-6-yl)acetic acid] | < 1.39 µM | > 5.57 µM | 1.39 to 5.57 µM | < 1.39 µM | < 1.39 µM | 1.39 to 5.57 µM | > 5.57 µM
O=C(O)C[C@@H]1CC[C@H](NC(=O)c2ccc(Cn3cnnn3)cc2)B(O)O1 [Compound 56, 2-((3R,6S)-3-(4-((1H-tetrazol-1-yl)methyl)benzamido)-2-hydroxy-1,2-oxaborinan-6-yl)acetic acid] | < 1.39 µM | 1.39 to 5.57 µM | 1.39 to 5.57 µM | < 1.39 µM | < 1.39 µM | < 1.39 µM | > 5.57 µM
O=C(O)C[C@@H]1CC[C@H](NC(=O)Cc2ccccn2)B(O)O1 [Compound 57, 2-((3R,6S)-2-hydroxy-3-(2-(pyridin-2-yl)acetamido)-1,2-oxaborinan-6-yl)acetic acid] | < 1.71 µM | > 6.85 µM | > 6.85 µM | < 1.71 µM | < 1.71 µM | < 1.71 µM | > 6.85 µM

From patent US11090319B2, “Therapeutic uses of pharmaceutical compositions comprising cyclic boronic acid ester derivatives” (Melinta Subsidiary Corp., priority 2010, dated 2021)
